Experimental data taken from publication PMC5584707, “Pro-Secretory Activity and Pharmacology in Rabbits of an Aminophenyl-1,3,5-Triazine CFTR Activator for Dry Eye Disorders” (Investigative Ophthalmology & Visual Science, 2017).

Tests used:
human wildtype CFTR = details: cell cultures, cited from earlier work
tear volume in mice = details: delivered topically; cited from earlier work
[1] = test system: lacrimal gland ablation models in mice; parameters: method as in PMID 26842854; details: cited from earlier work
ENaC [2] = experiment: Ocular surface potential difference (PD) in vivo, amiloride-sensitive sodium channel; details: rabbit in vivo, amiloride 100 μM, average
Protocol: (§1) Open-circuit transepithelial potential difference (PD, in mV) at the ocular surface was measured continuously in anesthetized rabbits using a procedure modified from that established in mice.[8] Rabbits were intubated and anesthetized with isoflurane, and respiratory rate, blood pressure, and body temperature were monitored. For PD recording, solutions (see below) were serially perfused at 10 mL/min through PE-90 plastic tubing using a gravity multireservoir pinch-valve system (ALA Scientific, Westbury, NY, USA) and a variable-flow peristaltic pump (medium flow model; Thermo Fisher Scientific, Fair Lawn, NJ, USA). A perfusion catheter was fixed onto an adjustable stereotaxic frame with the tip immersed in solution contacting the ocular surface, as diagrammed in Figure 2A. Excess fluid was aspirated by continuous suction (low-powered wall vacuum) using 1/8-inch tubing (inner diameter 3/32 inch) placed 3 mm from the lateral canthus to maintain near-constant perfusate volume in contact with cornea, bulbar conjunctiva, and palpebral conjunctiva without fluid runoff. The measuring electrode contacted the perfusion catheter and was connected to a high-impedance voltmeter (IsoMilivolt Meter; World Precision Instruments, Sarasota, FL, USA). The reference electrode was grounded using a winged, 25-gauge needle filled with normal saline inserted subcutaneously in the abdomen. […]

ENaC [3] = experiment: Short-circuit current in freshly isolated conjunctiva, amiloride; assay type: biochemical; details: ex vivo rabbit conjunctiva, 10 μM
Protocol: (§2) Short-circuit current was measured in freshly isolated rabbit conjunctiva, as described[16] with modification. Rabbits were euthanized by injection of 150 mg/kg euthasol into the marginal ear vein. The entire eyeball with eyelids intact was removed from the orbit to preserve conjunctival epithelial integrity. Within 10 minutes, a sheet of forniceal and palpebral conjunctiva was dissected, mounted onto a P2304 tissue slider (Physiologic Instruments, San Diego, CA, USA), and placed into the Ussing chamber. The apical and basolateral chambers contained (in mM): 120 NaCl, 3 KCl, 1 CaCl2, 1 MgCl2, 10 glucose, 25 NaHCO3, and 5 HEPES, pH 7.4. Solutions were bubbled with 95% O2/5% CO2 and maintained at 37°C. Hemichambers were connected to a DVC-1000 voltage clamp (World Precision Instruments Inc., Sarasota, FL, USA) via Ag/AgCl electrodes and 3 M KCl agar bridges.

dry eye = test system: dry eye; parameters: method as in PMID 15502479; details: United States; cited from earlier work
[4] = biological target: T1, CFTR chloride conductance at the rabbit ocular surface (Oryctolagus cuniculus, UniProt Q00554); experiment: Ocular surface potential difference (PD) in vivo, CFTR
T1 construct: from tissue; host or cells: ocular surface (cornea, bulbar and palpebral conjunctiva) of living anesthetized rabbits
T1 sequence (Q00554 whole entry): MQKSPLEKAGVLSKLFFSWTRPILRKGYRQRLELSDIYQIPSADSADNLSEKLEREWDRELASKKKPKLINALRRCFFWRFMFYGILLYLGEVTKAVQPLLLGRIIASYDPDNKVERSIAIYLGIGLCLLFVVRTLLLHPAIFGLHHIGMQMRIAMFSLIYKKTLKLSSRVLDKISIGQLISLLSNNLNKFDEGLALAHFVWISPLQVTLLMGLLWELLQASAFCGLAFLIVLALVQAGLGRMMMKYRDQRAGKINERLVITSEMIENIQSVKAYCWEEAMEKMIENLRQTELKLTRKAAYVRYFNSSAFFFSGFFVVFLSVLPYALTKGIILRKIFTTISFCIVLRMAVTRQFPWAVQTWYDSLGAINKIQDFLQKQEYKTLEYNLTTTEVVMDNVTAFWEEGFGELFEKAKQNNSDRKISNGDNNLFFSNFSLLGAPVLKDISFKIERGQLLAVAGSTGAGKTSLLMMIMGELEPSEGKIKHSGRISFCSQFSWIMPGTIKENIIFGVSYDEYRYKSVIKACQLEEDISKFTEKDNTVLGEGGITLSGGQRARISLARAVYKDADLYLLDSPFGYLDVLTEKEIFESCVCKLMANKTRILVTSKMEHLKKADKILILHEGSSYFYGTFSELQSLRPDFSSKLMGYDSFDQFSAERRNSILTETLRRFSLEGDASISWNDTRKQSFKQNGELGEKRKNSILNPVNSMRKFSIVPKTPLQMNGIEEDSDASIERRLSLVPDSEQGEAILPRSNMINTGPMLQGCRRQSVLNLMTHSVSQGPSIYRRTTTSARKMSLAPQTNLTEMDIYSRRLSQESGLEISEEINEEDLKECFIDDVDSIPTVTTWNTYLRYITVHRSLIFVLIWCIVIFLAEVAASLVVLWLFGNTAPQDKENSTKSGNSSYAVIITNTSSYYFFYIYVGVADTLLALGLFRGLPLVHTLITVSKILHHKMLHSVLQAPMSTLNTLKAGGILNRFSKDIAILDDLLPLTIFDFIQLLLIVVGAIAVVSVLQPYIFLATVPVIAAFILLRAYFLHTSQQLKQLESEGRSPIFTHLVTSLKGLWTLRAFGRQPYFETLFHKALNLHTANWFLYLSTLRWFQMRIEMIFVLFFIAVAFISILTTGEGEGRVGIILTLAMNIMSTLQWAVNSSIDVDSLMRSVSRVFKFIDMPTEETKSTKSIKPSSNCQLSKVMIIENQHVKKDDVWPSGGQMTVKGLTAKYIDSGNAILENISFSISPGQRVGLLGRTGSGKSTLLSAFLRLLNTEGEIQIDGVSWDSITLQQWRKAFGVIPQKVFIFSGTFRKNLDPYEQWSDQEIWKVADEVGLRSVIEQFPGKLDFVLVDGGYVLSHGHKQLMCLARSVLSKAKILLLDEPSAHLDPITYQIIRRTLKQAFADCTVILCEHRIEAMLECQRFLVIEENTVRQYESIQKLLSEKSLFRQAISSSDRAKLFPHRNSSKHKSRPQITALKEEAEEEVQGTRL
Protocol: as §1

[5] = biological target: T2, CFTR in rabbit forniceal and palpebral conjunctiva (Oryctolagus cuniculus, UniProt Q00554); experiment: Short-circuit current in freshly isolated conjunctiva, CFTR; assay type: biochemical; details: ex vivo rabbit conjunctiva
T2 construct: a sheet of forniceal and palpebral conjunctiva was dissected; from tissue; host or cells: freshly isolated rabbit forniceal and palpebral conjunctiva in an Ussing chamber
T2 sequence (Q00554 whole entry): as above
Protocol: as §2, with “Solutions were bubbled with 95% O2/5% CO2 and maintained at 37°C.” left out

For `CCN(CC)c1nc(Nc2ccccc2)nc(OC(C(F)(F)F)C(F)(F)F)n1` [CFTRact-K089], the “Extent of CFTR activation” value (human wildtype CFTR) is listed as “fully activated CFTR”, the EC50 (human wildtype CFTR; read-out: EC50 of CFTR activation) is listed as roughly 250 nM and the “Duration of increase in tear volume” value (tear volume in mice) is listed as 4 h. For the same compound, the “Effect on tear volume” value (tear volume in mice) was “doubled tear volume”, the “Effect on pathology when administered after development of dry eye” value [1] was “reversed pathology” and the “Effect on corneal epithelial disruption” value ([1]; three times daily) was “prevented corneal epithelial disruption”. The “Effect on tear volume” value ([1]; three times daily) was “normalized tear volume”.
In the case of `N=C(N)NC(=O)c1nc(Cl)c(N)nc1N` [amiloride], the “Depolarization of ocular surface PD” value (ENaC [2]) is reported as roughly 5 mV, the “Effect on short-circuit current” value (ENaC [3]) is reported as “no amiloride effect” and the “Effect on short-circuit current” value (ENaC [3]; listed as Amiloride) is reported as “no effect”.
In the case of `O=c1ccn([C@@H]2O[C@H](COP(=O)(O)OP(=O)(O)OP(=O)(O)OP(=O)(O)OC[C@H]3O[C@@H](n4ccc(=O)[nH]c4=O)[C@H](O)[C@@H]3O)[C@@H](O)[C@H]2O)c(=O)[nH]1` [diquafosol], the “Efficacy in phase III trials” value (dry eye) is listed as “did not show efficacy”.
In the case of `C=C[C@@]1(C)CC(=O)[C@]2(O)[C@@]3(C)[C@@H](O)CCC(C)(C)[C@@H]3[C@H](O)[C@H](OC(C)=O)[C@@]2(C)O1` [forskolin], the “Further change in ocular surface PD on top of CFTRact-K267” value ([4]; forskolin 20 μM after 10 μM CFTRact-K267) is reported as “minimally further increased”, the “CFTR activation (short-circuit current)” value ([5]; high concentration) is reported as “Maximal CFTR activation” and the “Change in short-circuit current” value ([5]; low concentration 25 nM) is reported as “small increase in current”.
In the case of CFTRinh-172, the “Reversal of PD changes” value ([4]; CFTRinh-172 10 μM in final perfusion solution) is reported as “largely reversed” and the “Effect on increases in short-circuit current” value ([5]; CFTR inhibitor added last) is reported as “inhibited”.
